In patent publication US9931331B2 (priority 2013, dated 2018):
Values joined by “and” are separate entries in the source; they are usually repeats but may differ in a detail not shown here. Equal entries are not always repeated. Residues, ends and D or L forms follow the SMILES beside them. *: point of attachment. Cbz = O=C(OCc1ccccc1)*

Columns and labels:
[1] = system: cervical cancer cell (HeLa); test: Cell viability (calcein-AM / ethidium homodimer-1), HeLa; conditions: 24 h
Description: (§1) Strains of cervical cancer cell (HeLa), kidney cancer cell (Caki-1), brain tumor cell (T98G), breast cancer cell (MDA-MB 435S), and colon cancer cell (DLD-1), multiple myeloma cell (RPMI-8226), and a strain of normal breast epithelial cell (MCF-10A) were available from ATCC (American Type Culture Collection, USA). The strains of cervical cancer cell (HeLa), kidney cancer cell (Caki-1), brain tumor cell (T98G), breast cancer cell (MDA-MB 435S), and colon cancer cell (DLD-1) were cultured by using a DMEM medium including 10% fetal bovine serum (FBS), 2 mM of L-glutamin, 100 i.u./ml of penicillin, and […] of streptomycin for the culture and maintenance; multiple myeloma cell (RPMI-8226) was cultured by using a RPMI1640 medium including 10% FBS, 100 i.u./ml of penicillin, and […] of streptomycin; and the strain of normal breast epithelial cell (MCF-10A) was cultured by using a mammary epithelial growth medium (MEGM) including a bovine pituitary extract, insulin, human epidermal growth factor, hydrocortisone, and antibiotics, and the culture conditions included 37° C. and 5% CO2 in an incubator.
(§2) Then, the cells were stained by using 2 μM calcein-AM and 4 μM ethidium homodimer-1, and cell viability was measured by using a fluorescent microscope (Axiovert 200M, available from Carl Zeiss, Jena, Germany).

[2] = system: kidney cancer cell (Caki-1); test: Cell viability (calcein-AM / ethidium homodimer-1), Caki-1
Description: as §1, §2

brain tumor cell (T98G) = test: Cell viability (calcein-AM / ethidium homodimer-1), T98G; conditions: 24 h
Description: as §1, §2

[3] = system: colon cancer cell (DLD-1); test: Cell viability (calcein-AM / ethidium homodimer-1), DLD-1
Description: as §1, §2

[4] = system: multiple myeloma cell (RPMI-8226); test: Cell viability (calcein-AM / ethidium homodimer-1), RPMI-8226; conditions: for Cell viability: RPMI-8226, 24 h
Description: as §1, §2

[5] = system: breast cancer cell (MDA-MB 435S); test: Cell viability (calcein-AM / ethidium homodimer-1), MDA-MB 435S; conditions: 24 h
Description: as §1, §2

[6] = system: normal breast epithelial cell (MCF-10A); test: Cell viability (calcein-AM / ethidium homodimer-1), MCF-10A; conditions: MCF-10A, 24 h
Description: as §1, §2

[7] = as above; conditions: human
Description: as §1, §2

[8] = Homo sapiens, read-out: cell viability decreased
[9] = Homo sapiens, CAKI-1, 24 h, read-out: Cell viability
[10] = Homo sapiens, CAKI-1, 24 h, read-out: cell viability decreased
[11] = Homo sapiens, DLD-1, 24 h, read-out: Cell viability
[12] = Homo sapiens, RPMI-8226, 24 h, read-out: Cell viability
[13] = Homo sapiens, MDA-MB-435S, read-out: Cell viability
[14] = Homo sapiens, read-out: Cell viability

## CC[C@H](C)[C@H](NC(=O)[C@H]([C@@H](C)CC)N(C)C(C)=O)C(=O)N[C@H](C(=O)N[C@@H](CC(C)C)C(=O)[C@@]1(C)CO1)[C@@H](C)O [Epoxomicin]
[1]; epoxomicin 10 nM alone
  Cell viability: 100
[1]; epoxomicin 20 nM alone
  Cell viability: 87.73
[1]; epoxomicin alone 20 nM
  cell viability decreased: about 12%
[2]; Caki-1, epoxomicin 20 nM alone, 24 h
  Cell viability: 100
[2]; Caki-1, epoxomicin alone 40 nM, 24 h
  cell viability decreased: about 35%
[2]; Caki-1, epoxomicin alone up to 20 nM, 24 h
  cancer cell toxicity: did not induce cancer cell toxicity
Brain tumor cell (T98G); epoxomicin 5 nM alone
  Cell viability: 95.66
Brain tumor cell (T98G); epoxomicin 10 nM alone
  Cell viability: 79.79
[3]; DLD-1, epoxomicin 20 nM alone, 24 h
  Cell viability: 99.70
[4]; epoxomicin 2.5 nM alone
  Cell viability: 100
[4]; epoxomicin 5 nM alone
  Cell viability: 92.72
[5]; MDA-MB 435S, epoxomicin alone 15 nM
  cell viability decreased: about 18%
[6]; epoxomicin 10 nM alone
  Cell viability: 97.62
[6]; epoxomicin 20 nM alone
  Cell viability: 94.36

## CN(C)C(=O)C(CCN1CCC(O)(c2ccc(Cl)cc2)CC1)(c1ccccc1)c1ccccc1 [Loperamide]
[1]; Homo sapiens, read-out: Cell viability, HeLa, loperamide 20 μM alone
  viability at 20 µM: 99.7%
[1]; Homo sapiens, read-out: Cell viability, HeLa, loperamide 40 μM alone
  viability at 40 µM: 75.1%
[1]; [8]
  cytotoxicity at 40 µM: ~25%
[1]; loperamide 20 μM alone
  Cell viability: 99.81
[2]; [9]
  viability at 20 µM: 100%
  viability at 40 µM: 65.1%
[2]; [10]
  cytotoxicity at 40 µM: ~35%
Brain tumor cell (T98G); Homo sapiens, read-out: Cell viability, T98G, loperamide 10 μM alone
  viability at 10 µM: 100%
Brain tumor cell (T98G); Homo sapiens, read-out: Cell viability, T98G, loperamide 20 μM alone
  viability at 20 µM: 99%
Brain tumor cell (T98G); [8]
  cytotoxicity at 20 µM: ~10%
Brain tumor cell (T98G); loperamide 10 μM alone
  Cell viability: 94.43
Brain tumor cell (T98G); loperamide alone up to 20 μM
  cancer cell toxicity: did not exhibit significant cancer cell toxicity
[3]; [11]
  viability at 10 µM: 100%
  viability at 20 µM: 100%
[4]; [12]
  viability at 5 µM: 98.6%
  viability at 10 µM: 89.4%
[5]; [13]
  viability at 10 µM: 100%
  viability at 20 µM: 78%
[5]; Homo sapiens, MDA-MB-435S, read-out: cell viability decreased, MDA-MB 435S, loperamide alone 20 μM
  cytotoxicity at 20 µM: ~22%
[6]; loperamide 10 μM alone
  Cell viability: 95.21 and 100.29 and 95.11
[6]; loperamide 20 μM alone
  Cell viability: 99.25 and 94.65 and 100.37
[7]; Cell viability, MCF-10A, loperamide 10 μM alone, 24 h
  viability at 24 h, 10 μM: 97.7%
[7]; Cell viability, MCF-10A, loperamide 20 μM alone, 24 h
  viability at 24 h, 20 μM: 94.6%

## CC(C)C[C@@H](C=O)NC(=O)[C@H](CC(C)C)NC(=O)[C@H](CC(C)C)NC(=O)OCc1ccccc1 [MG132] (Cbz-Leu-Leu-Leu-aldehyde)
[1]; [14]
  viability at 0.5 µM: 100%
  viability at 1 µM: 100%
[1]; MG132 alone up to 1 μM
  cell toxicity: did not exhibit cell toxicity
[2]; [9]
  viability at 0.5 µM: 100%
  viability at 1 µM: 89.3%
[2]; [10]
  cytotoxicity at 1 µM: ~10%
Brain tumor cell (T98G); [14]
  viability at 0.125 µM: 99.7%
  viability at 0.25 µM: 96.5%
Brain tumor cell (T98G); MG132 up to 0.25 μM
  cancer cell toxicity: did not exhibit significant cancer cell toxicity
[3]; [11]
  viability at 0.5 µM: 91.7%
  viability at 1 µM: 81.3%
[3]; Homo sapiens, DLD-1, 24 h, read-out: cell viability decreased
  cytotoxicity at 1 µM: ~19%
[4]; [12]
  viability at 0.1 µM: 100%
  viability at 0.2 µM: 99.1%
[5]; [13]
  viability at 0.25 µM: 100%
  viability at 0.5 µM: 93%
[5]; MDA-MB 435S, MG132 alone up to 0.5 μM
  cancer cell toxicity: did not exhibit significant cancer cell toxicity
[7]
  viability at 24 h, 0.25 μM: 95.2%
  viability at 24 h, 0.5 μM: 92.9%

## CC(C)C[C@H](NC(=O)CNC(=O)c1cc(Cl)ccc1Cl)B1OC(=O)C(CC(=O)O)(CC(=O)O)O1 [MLN9708]
[1]; [14]
  viability at 0.1 µM: 100%
  viability at 0.2 µM: 97.8%
[2]; [9]
  viability at 0.1 µM: 83.3%
  viability at 0.2 µM: 75.7%
[2]; [10]
  cytotoxicity at 0.2 µM: ~25%
Brain tumor cell (T98G); [14]
  viability at 0.05 µM: 92%
  viability at 0.1 µM: 84.7%
[3]; [11]
  viability at 0.1 µM: 98.2%
  viability at 0.2 µM: 95.2%
[4]; [12]
  viability at 0.02 µM: 100%
  viability at 0.04 µM: 80.8%
[5]; [13]
  viability at 0.1 µM: 97.5%
  viability at 0.2 µM: 93.3%
[5]; Homo sapiens, MDA-MB-435S, read-out: cell viability decreased
  cytotoxicity at 0.2 µM: ~10%
[7]
  viability at 24 h, 50 nM: 98%
  viability at 24 h, 100 nM: 92.3%
